Earlier results as cited in patent publication US7790164B2, “Fragments of antibodies to epidermal growth factor receptor and methods of their use” (Van Andel Research Institute, priority 2007, dated 2010).

Tested on: A431 cells
Conditions: Ojima et al. J Med Chem 2002, read-out: IC50 of A431 to paclitaxel; cited from earlier work

For `CC(=O)O[C@H]1C(=O)[C@@]2(C)[C@H]([C@H](OC(=O)c3ccccc3)[C@]3(O)C[C@H](OC(=O)[C@H](O)[C@@H](NC(=O)c4ccccc4)c4ccccc4)C(C)=C1C3(C)C)[C@]1(OC(C)=O)CO[C@@H]1C[C@@H]2O` [paclitaxel], the IC50 is listed as ~90 pM.
